Assay results from patent US6274715A, “Tricyclic erythromycin derivatives” (priority 1997, dated 2001).
In brackets after ≈: the same amount, converted by molar mass.

How the values were obtained:
Assay type in all cases: cell-based
[1] = test system: STAPHYLOCOCCUS AUREUS ATCC 6538P; assay: In vitro antibacterial activity, MIC, BHI agar dilution; details: S. aureus ATCC 6538P, 35-37° C., 20 to 24 hours, unit assumed
[2] = test system: STAPHYLOCOCCUS AUREUS A5177; assay: as above; details: S. aureus A5177, unit assumed
[3] = test system: STAPHYLOCOCCUS AUREUS A-5278; assay: as above; details: S. aureus A-5278, unit assumed
[4] = test system: STAPHYLOCOCCUS AUREUS CMX 642A; assay: as above; details: S. aureus CMX 642A, unit assumed
[5] = test system: STAPHYLOCOCCUS AUREUS NCTC10649M; assay: as above; details: S. aureus NCTC10649M, unit assumed
[6] = test system: STAPHYLOCOCCUS AUREUS CMX 553; assay: as above; details: S. aureus CMX 553, unit assumed
[7] = test system: STAPHYLOCOCCUS AUREUS 1775; assay: as above; details: S. aureus 1775, unit assumed
[8] = test system: STAPHYLOCOCCUS EPIDERMIDIS 3519; details: S. epidermidis 3519; BHI agar; unit assumed
EN[…] ATCC 8043 = assay: In vitro antibacterial activity, MIC, BHI agar dilution; details: E. faecium ATCC 8043, unit assumed
Experimental: (§1) Representative compounds of the present invention were assayed in vitro for antibacterial activity as follows: Twelve petri dishes containing successive aqueous dilutions of the test compound mixed with 10 mL of sterilized Brain Heart Infusion (BHI) agar (Difco 0418-01-5) were prepared. Each plate was inoculated with 1:100 (or 1:10 for slow-growing strains, such as Micrococcus and Streptococcus) dilutions of up to 32 different microorganisms, using a Steers replicator block. The inoculated plates were incubated at 35-37° C. for 20 to 24 hours. In addition, a control plate, using BHI agar containing no test compound, was prepared and incubated at the beginning and end of each test.
(§2) An additional plate containing a compound having known susceptibility patterns for the organisms being tested and belonging to the same antibiotic class as the test compound was also prepared and incubated as a further control, as well as to provide test-to-test comparability. Erythromycin A was used for this purpose.
(§3) After incubation, each plate was visually inspected. The minimum inhibitory concentration (MIC) was defmed as the lowest concentration of drug yielding no growth, a slight haze, or sparsely isolated colonies on the inoculum spot as compared to the growth control.

M[…] ATCC 4698 = assay: as above; details: M. luteus ATCC 4698, unit assumed
Experimental: as §1, §2, §3

M[…] ATCC 9341 = assay: as above; details: M. luteus ATCC 9341, unit assumed
Experimental: as §1, §2, §3

STR[…] 508 = assay: as above; details: S. agalactiae CMX 508, unit assumed
Experimental: as §1, §2, §3

[9] = test system: STREPTOCOCCUS BOVIS A-5169; assay: as above; details: S. bovis A-5169, unit assumed
[10] = test system: STREPTOCOCCUS PYOGENES EES61; assay: as above; details: S. pyogenes EES61, unit assumed
[11] = test system: STREPTOCOCCUS PYOGENES 930; assay: as above; details: S. pyogenes 930, unit assumed
ESCHERICHIA COLI JUHL = details: E. coli JUHL; BHI agar; unit assumed
ESCHERICHIA COLI SS = assay: In vitro antibacterial activity, MIC, BHI agar dilution; details: E. coli SS, unit assumed
ESCHERICHIA COLI DC-2 = assay: as above; details: E. coli DC-2, unit assumed
ESCHERICHIA COLI H560 = assay: as above; details: E. coli H560, unit assumed
ESCHERICHIA COLI KNK 437 = details: E. coli KNK 437; BHI agar; unit assumed
[12] = test system: ENTEROBACTER AEROGENES ATCC 13048; assay: In vitro antibacterial activity, MIC, BHI agar dilution; details: E. aerogenes ATCC 13048, unit assumed
[13] = test system: KLEBSIELLA PNEUMONIAE ATCC 8045; assay: as above; details: K. pneumoniae ATCC 8045, unit assumed
[14] = test system: PROVIDENCIA STUARTII CMX 640; details: P. stuartii CMX 640; BHI agar; unit assumed
[15] = test system: PSEUDOMONAS AERUGINOSA BMH10; assay: In vitro antibacterial activity, MIC, BHI agar dilution; details: P. aeruginosa BMH10, unit assumed
[16] = test system: PSEUDOMONAS AERUGINOSA 5007; assay: as above; details: P. aeruginosa 5007, unit assumed
[17] = test system: PSEUDOMONAS AERUGINOSA K799/WT; assay: as above; details: P. aeruginosa K799/WT, unit assumed
[18] = test system: PSEUDOMONAS AERUGINOSA K799/61; assay: as above; details: P. aeruginosa K799/61, unit assumed
PSEUDOMONAS CEPACIA 296I = assay: as above; details: P. cepacia 296I, unit assumed
[19] = test system: PSEUDOMONAS AERUGINOSA DPHD-5263; assay: as above; details: P. aeruginosa DPHD-5263, unit assumed
[20] = test system: PSEUDOMONAS AERUGINOSA DPHD-2862; assay: as above; details: P. aeruginosa DPHD-2862, unit assumed
CANDIDA ALBICANS CCH 442 = assay: as above; details: C. albicans CCH 442, unit assumed
[21] = test system: MYCOBACTERIUM SMEGMATIS ATCC 114; assay: as above; details: M. smegmatis ATCC 114, unit assumed
[22] = test system: STREPTOCOCCUS PYOGENES PIU 2548; assay: as above; details: S. pyogenes PIU 2548, unit assumed

SMILES | MIC [1] | MIC [2] | MIC [3] | MIC [4] | MIC [5] | MIC [6] | MIC [7] | MIC [8] | MIC (EN[…] ATCC 8043) | MIC (M[…] ATCC 4698) | MIC (M[…] ATCC 9341) | MIC (STR[…] 508) | MIC [9] | MIC [10] | MIC [11] | MIC (ESCHERICHIA COLI JUHL) | MIC (ESCHERICHIA COLI DC-2) | MIC (ESCHERICHIA COLI H560) | MIC (ESCHERICHIA COLI KNK 437) | MIC [12] | further results
CC[C@H]1OC(=O)[C@H](C)C(=O)[C@H](C)[C@@H](O[C@@H]2O[C@H](C)C[C@H](N(C)C)[C@H]2O)[C@](C)(OC)C[C@@H](C)C2=N[C@@H](COCc3ccncc3)CN3C(=O)O[C@@]1(C)[C@H]3[C@H]2C [Example 86] | 0.39 µg/mL (≈ 0.514 µM) | 0.2 µg/mL (≈ 0.264 µM) | > 100 µg/mL | 0.39 µg/mL (≈ 0.514 µM) | 0.39 µg/mL (≈ 0.514 µM) | 0.39 µg/mL (≈ 0.514 µM) | > 100 µg/mL | 0.39 µg/mL (≈ 0.514 µM) | 0.05 µg/mL (≈ 0.0659 µM) | 0.39 µg/mL (≈ 0.514 µM) | 0.05 µg/mL (≈ 0.0659 µM) | 0.01 µg/mL (≈ 0.0132 µM) | ≤ 0.005 µg/mL | < 0.005 µg/mL | > 100 µg/mL | > 100 µg/mL | 100 µg/mL (≈ 132 µM) | 50 µg/mL (≈ 65.9 µM) | > 100 µg/mL | > 100 µg/mL | MIC (ESCHERICHIA COLI SS): 0.39 µg/mL (≈ 0.514 µM); MIC [13]: > 100 µg/mL; MIC [14]: > 100 µg/mL; MIC [15]: > 100 µg/mL; MIC [16]: > 100 µg/mL; MIC [17]: 100 µg/mL (≈ 132 µM); MIC [18]: 1.56 µg/mL (≈ 2.06 µM); MIC (PSEUDOMONAS CEPACIA 296I): > 100 µg/mL; MIC [19]: > 100 µg/mL; MIC [20]: > 100 µg/mL; MIC (CANDIDA ALBICANS CCH 442): > 100 µg/mL; MIC [21]: 0.78 µg/mL (≈ 1.03 µM)
CC[C@H]1OC(=O)[C@H](C)C(=O)[C@H](C)[C@@H](O[C@@H]2O[C@H](C)C[C@H](N(C)C)[C@H]2O)[C@](C)(OC)C[C@@H](C)C2=NC3CCCCC3N3C(=O)O[C@@]1(C)[C@H]3[C@H]2C (some centres unmarked) [Example 106] | 0.2 µg/mL (≈ 0.289 µM) | 0.2 µg/mL (≈ 0.289 µM) | > 100 µg/mL | 0.39 µg/mL (≈ 0.564 µM) | 0.2 µg/mL (≈ 0.289 µM) | 0.2 µg/mL (≈ 0.289 µM) | > 100 µg/mL | 0.2 µg/mL (≈ 0.289 µM) | 0.05 µg/mL (≈ 0.0723 µM) | 0.39 µg/mL (≈ 0.564 µM) | 0.05 µg/mL (≈ 0.0723 µM) | 0.02 µg/mL (≈ 0.0289 µM) | ≤ 0.005 µg/mL | ≤ 0.005 µg/mL | > 100 µg/mL | 25 µg/mL (≈ 36.1 µM) | 25 µg/mL (≈ 36.1 µM) | 12.5 µg/mL (≈ 18.1 µM) | 25 µg/mL (≈ 36.1 µM) | 50 µg/mL (≈ 72.3 µM) | MIC (ESCHERICHIA COLI SS): 0.39 µg/mL (≈ 0.564 µM); MIC [13]: 100 µg/mL (≈ 145 µM); MIC [14]: > 100 µg/mL; MIC [15]: 100 µg/mL (≈ 145 µM); MIC [16]: > 100 µg/mL; MIC [17]: 100 µg/mL (≈ 145 µM); MIC [18]: 0.78 µg/mL (≈ 1.13 µM); MIC (PSEUDOMONAS CEPACIA 296I): 100 µg/mL (≈ 145 µM); MIC [19]: 100 µg/mL (≈ 145 µM); MIC [20]: > 100 µg/mL; MIC (CANDIDA ALBICANS CCH 442): > 100 µg/mL; MIC [21]: 3.1 µg/mL (≈ 4.48 µM)
CC[C@H]1OC(=O)[C@H](C)C(=O)[C@H](C)[C@@H](O[C@@H]2O[C@H](C)C[C@H](N(C)C)[C@H]2O)[C@](C)(OC)C[C@@H](C)C2=NC3CN(C(C)c4ccccc4)CC3N3C(=O)O[C@@]1(C)[C@H]3[C@H]2C (some centres unmarked) [Example 113] | 0.78 µg/mL (≈ 0.996 µM) | 0.39 µg/mL (≈ 0.498 µM) | > 100 µg/mL | 0.78 µg/mL (≈ 0.996 µM) | 0.78 µg/mL (≈ 0.996 µM) | 0.78 µg/mL (≈ 0.996 µM) | > 100 µg/mL | 1.56 µg/mL (≈ 1.99 µM) | 0.2 µg/mL (≈ 0.255 µM) | 0.78 µg/mL (≈ 0.996 µM) | 0.1 µg/mL (≈ 0.128 µM) | 0.2 µg/mL (≈ 0.255 µM) | 0.01 µg/mL (≈ 0.0128 µM) | 0.05 µg/mL (≈ 0.0639 µM) | > 100 µg/mL | > 100 µg/mL | > 100 µg/mL | 50 µg/mL (≈ 63.9 µM) | > 100 µg/mL | > 100 µg/mL | MIC [22]: 0.39 µg/mL (≈ 0.498 µM); MIC [13]: > 100 µg/mL; MIC [14]: > 100 µg/mL; MIC [15]: > 100 µg/mL; MIC [16]: > 100 µg/mL; MIC [17]: > 100 µg/mL; MIC [18]: 3.1 µg/mL (≈ 3.96 µM); MIC (PSEUDOMONAS CEPACIA 296I): > 100 µg/mL; MIC [19]: > 100 µg/mL; MIC [20]: > 100 µg/mL; MIC (CANDIDA ALBICANS CCH 442): > 100 µg/mL
